Experimental data reported in ChEMBL document CHEMBL4004838, “Design and synthesis of novel phenyl -1, 4-beta-carboline-hybrid molecules as potential anticancer agents” (Eur J Med Chem, 2017).
The source made the active and inactive calls. The rule behind the calls is not given here.

Experiments:
Bos taurus = organism: Bos taurus; assay: Induction of calf thymus DNA intercalation assessed as compound-DNA complex formation at 5 uM incubated for 1 hr by ethidium bromide staining based agarose gel electrophoresis relative to control
OVCAR-4 [1] = assay: Growth inhibition of human OVCAR4 cells assessed as cell growth at 1 uM incubated for 48 hrs by sulforhodamine B assay relative to control; format: functional; details: OVCAR-4, 48 h, read-out: Activity
DU-145 [2] = assay: Growth inhibition of human DU145 cells incubated for 48 hrs by sulforhodamine B assay; format: functional; details: DU-145, 48 h
EKVX = assay: Growth inhibition of human EKVX cells incubated for 48 hrs by sulforhodamine B assay; format: functional
NCI-H522 [3] = assay: Growth inhibition of human NCI-H522 cells assessed as cell growth at 1 uM incubated for 48 hrs by sulforhodamine B assay relative to control; format: functional; details: NCI-H522, 48 h, read-out: Activity
UACC-62 = assay: Growth inhibition of human UACC62 cells assessed as cell growth at 0.1 uM incubated for 48 hrs by sulforhodamine B assay relative to control; format: functional; details: UACC-62, 48 h, read-out: Activity
KM12 = assay: Growth inhibition of human KM12 cells assessed as cell growth at 0.01 uM incubated for 48 hrs by sulforhodamine B assay relative to control; format: functional; details: KM12, 48 h, read-out: Activity
HL-60(TB) [4] = assay: Growth inhibition of human HL-60(TB) cells assessed as cell growth at 0.01 uM incubated for 48 hrs by sulforhodamine B assay relative to control; format: functional; details: HL-60, 48 h, read-out: Activity
SF-268 = assay: Growth inhibition of human SF268 cells incubated for 48 hrs by sulforhodamine B assay; format: functional; details: SF-268, 48 h
SK-MEL-5 = assay: Growth inhibition of human SK-MEL-5 cells assessed as cell growth at 100 uM incubated for 48 hrs by sulforhodamine B assay relative to control; format: functional; details: SK-MEL-5, 48 h, read-out: Activity
NCI-H522 [5] = assay: Growth inhibition of human NCI-H522 cells incubated for 48 hrs by sulforhodamine B assay; format: functional; details: NCI-H522, 48 h
HOP-92 [6] = assay: Growth inhibition of human HOP92 cells assessed as cell growth at 0.1 uM incubated for 48 hrs by sulforhodamine B assay relative to control; format: functional; details: HOP-92, 48 h, read-out: Activity
DU-145 [7] = assay: Growth inhibition of human DU145 cells assessed as cell growth at 1 uM incubated for 48 hrs by sulforhodamine B assay relative to control; format: functional; details: DU-145, 48 h, read-out: Activity
RXF 393 = assay: Growth inhibition of human RXF393 cells incubated for 48 hrs by sulforhodamine B assay; format: functional; details: RXF 393, 48 h
CCRF-CEM [8] = assay: Growth inhibition of human CCRF-CEM cells assessed as cell growth at 0.01 uM incubated for 48 hrs by sulforhodamine B assay relative to control; format: functional; details: read-out: Activity
M14 = assay: Growth inhibition of human M14 cells incubated for 48 hrs by sulforhodamine B assay; format: functional; details: M14, 48 h
SK-OV-3 [9] = assay: Growth inhibition of human SKOV3 cells assessed as cell growth at 0.1 uM incubated for 48 hrs by sulforhodamine B assay relative to control; format: functional; details: SK-OV-3, 48 h, read-out: Activity
MOLT-4 = assay: Growth inhibition of human MOLT4 cells incubated for 48 hrs by sulforhodamine B assay; format: functional; details: MOLT-4, 48 h
CAKI-1 = assay: Growth inhibition of human Caki1 cells assessed as cell growth at 0.1 uM incubated for 48 hrs by sulforhodamine B assay relative to control; format: functional; details: CAKI-1, 48 h, read-out: Activity
SNB-75 = assay: Growth inhibition of human SNB75 cells assessed as cell growth at 0.1 uM incubated for 48 hrs by sulforhodamine B assay relative to control; format: functional; details: SNB-75, 48 h, read-out: Activity
SK-OV-3 [10] = assay: Growth inhibition of human SKOV3 cells assessed as cell growth at 1 uM incubated for 48 hrs by sulforhodamine B assay relative to control; format: functional; details: SK-OV-3, 48 h, read-out: Activity
CCRF-CEM [11] = assay: Growth inhibition of human CCRF-CEM cells assessed as cell growth at 0.1 uM incubated for 48 hrs by sulforhodamine B assay relative to control; format: functional; details: read-out: Activity
UO-31 = assay: Growth inhibition of human UO31 cells assessed as cell growth at 0.01 uM incubated for 48 hrs by sulforhodamine B assay relative to control; format: functional; details: UO-31, 48 h, read-out: Activity
HOP-92 [12] = assay: Growth inhibition of human HOP92 cells assessed as cell growth at 0.01 uM incubated for 48 hrs by sulforhodamine B assay relative to control; format: functional; details: HOP-92, 48 h, read-out: Activity
OVCAR-4 [13] = assay: Growth inhibition of human OVCAR4 cells assessed as cell growth at 100 uM incubated for 48 hrs by sulforhodamine B assay relative to control; format: functional; details: OVCAR-4, 48 h, read-out: Activity
HCC 2998 = assay: Growth inhibition of human HCC2998 cells assessed as cell growth at 0.1 uM incubated for 48 hrs by sulforhodamine B assay relative to control; format: functional; details: HCC 2998, 48 h, read-out: Activity
PC-3 = assay: Growth inhibition of human PC3 cells assessed as cell growth at 100 uM incubated for 48 hrs by sulforhodamine B assay relative to control; format: functional; details: PC-3, 48 h, read-out: Activity
OVCAR-4 [14] = assay: Growth inhibition of human OVCAR4 cells assessed as cell growth at 0.01 uM incubated for 48 hrs by sulforhodamine B assay relative to control; format: functional; details: OVCAR-4, 48 h, read-out: Activity
SF-539 = assay: Growth inhibition of human SF539 cells assessed as cell growth at 1 uM incubated for 48 hrs by sulforhodamine B assay relative to control; format: functional; details: SF-539, 48 h, read-out: Activity
HL-60(TB) [15] = assay: Growth inhibition of human HL-60(TB) cells assessed as cell growth at 100 uM incubated for 48 hrs by sulforhodamine B assay relative to control; format: functional; details: HL-60, 48 h, read-out: Activity
ACHN = assay: Growth inhibition of human ACHN cells assessed as cell growth at 100 uM incubated for 48 hrs by sulforhodamine B assay relative to control; format: functional; details: read-out: Activity
[16] = read-out: LC50 (the source's name)
[17] = read-out: pLC50 (the source's name) (converted)

SMILES: c1ccc2[nH]c(-c3ccc(-c4nccc5c4[nH]c4ccccc45)cc3)nc2c1
- Activity (Bos taurus): Active
- growth at 1 µM (OVCAR-4 [1]): 83%
- GI50 (DU-145 [2]; read-out: GI50): 4.02 µM
- CC50 (DU-145 [2]; [16]): 5.74 µM
- GI50 (DU-145 [2]; read-out: pGI50 (converted)): 3.98 µM
- CC50 (DU-145 [2]; [17]): 57.5 µM
- TGI (DU-145 [2]; read-out: pTGI (converted)): 16.2 µM
- GI50 (EKVX; read-out: GI50): 3.45 µM
- CC50 (EKVX; [16]): > 1 µM
- GI50 (EKVX; read-out: pGI50 (converted)): 3.47 µM
- CC50 (EKVX; [17]): > 100 µM
- TGI (EKVX; read-out: pTGI (converted)): 17 µM
- growth at 1 µM (NCI-H522 [3]): 91%
- growth at 0.1 µM (UACC-62): 91%
- growth at 0.01 µM (KM12): 95%
- growth at 0.01 µM (HL-60(TB) [4]): 95%
- GI50 (SF-268; read-out: GI50): 2.89 µM
- CC50 (SF-268; [16]): 8.98 µM
- GI50 (SF-268; read-out: pGI50 (converted)): 2.88 µM
- CC50 (SF-268; [17]): 89.1 µM
- TGI (SF-268; read-out: pTGI (converted)): 10.2 µM
- growth at 100 µM (SK-MEL-5): 86%
- GI50 (NCI-H522 [5]; read-out: GI50): 2.06 µM
- CC50 (NCI-H522 [5]; [16]): > 1 µM
- TGI (NCI-H522 [5]; read-out: TGI): 5.04 µM
- GI50 (NCI-H522 [5]; read-out: pGI50 (converted)): 2.04 µM
- CC50 (NCI-H522 [5]; [17]): > 100 µM
- TGI (NCI-H522 [5]; read-out: pTGI (converted)): 5.01 µM
- growth at 0.1 µM (HOP-92 [6]): 93%
- growth at 1 µM (DU-145 [7]): 97%
- GI50 (RXF 393; read-out: GI50): 1.93 µM
- CC50 (RXF 393; [16]): 6.45 µM
- TGI (RXF 393; read-out: TGI): 3.53 µM
- GI50 (RXF 393; read-out: pGI50 (converted)): 1.95 µM
- CC50 (RXF 393; [17]): 6.46 µM
- TGI (RXF 393; read-out: pTGI (converted)): 3.55 µM
- growth at 0.01 µM (CCRF-CEM [8]): 102%
- GI50 (M14; read-out: GI50): 1.79 µM
- CC50 (M14; [16]): 7.12 µM
- TGI (M14; read-out: TGI): 3.57 µM
- GI50 (M14; read-out: pGI50 (converted)): 1.78 µM
- CC50 (M14; [17]): 7.08 µM
- TGI (M14; read-out: pTGI (converted)): 3.55 µM
- growth at 0.1 µM (SK-OV-3 [9]): 98%
- GI50 (MOLT-4; read-out: GI50): 2.32 µM
- CC50 (MOLT-4; [16]): 7.51 µM
- TGI (MOLT-4; read-out: TGI): 6.11 µM
- GI50 (MOLT-4; read-out: pGI50 (converted)): 2.29 µM
- CC50 (MOLT-4; [17]): 75.9 µM
- TGI (MOLT-4; read-out: pTGI (converted)): 6.17 µM
- growth at 0.1 µM (CAKI-1): 96%
- growth at 0.1 µM (SNB-75): 78%
- growth at 1 µM (SK-OV-3 [10]): 100%
- growth at 0.1 µM (CCRF-CEM [11]): 102%
- growth at 0.01 µM (UO-31): 89%
- growth at 0.01 µM (HOP-92 [12]): 85%
- growth at 100 µM (OVCAR-4 [13]): 42%
- growth at 0.1 µM (HCC 2998): 95%
- growth at 100 µM (PC-3): 71%
- growth at 0.01 µM (OVCAR-4 [14]): 90%
- growth at 1 µM (SF-539): 98%
- growth at 100 µM (HL-60(TB) [15]): 40%
- growth at 100 µM (ACHN): 98%
